Results reported in ChEMBL document CHEMBL5500343, “Activity refinement of aryl amino acetamides that target the P. falciparum STAR-related lipid transfer 1 protein” (Eur J Med Chem, 2024).
Converted amounts (≈) assume the structure as drawn.

Columns and labels:
Plasmodium falciparum [1] = test: Antimalarial activity against asexual blood stage Plasmodium falciparum 3D7 assessed as reduction in parasite growth incubated for 72 hrs by LDH assay; type: functional, organism-based; details: 3D7, 72 h
HepG2 = test: Cytotoxicity against human HepG2 cells assessed as reduction in cell viability incubated for 48 hrs by Cell Titer-Glo assay; type: functional, cell-based; details: HepG2, 48 h
[2] = Intrinsic clearance in rat hepatocyte measured per 10^6 cells at 1 uM incubated upto 90 mins by LC-MS/MS analysis; type: ADME, cell-based; details: rat hepatocytes, read-out: CLH
[3] = Kinetic aqueous solubility of the compound in PBS at pH 7.4 incubated for 2 hr under shaking condition by shake flask based UV reader plate analysis; type: physicochemical; details: read-out: Kinetic_solubility
[4] = Intrinsic clearance in human liver microsomes at 1 uM incubated upto 60 mins in presence of NADPH by LC-MS/MS analysis; type: ADME, Microsome; details: read-out: CLH
[5] = Lipophilicity, LogD of compound in 1-Octanol and PBS at pH 7.4 at 7.5 uM incubated for 2 hrs shake flask method based LC-MS/MS analysis; type: physicochemical; details: 1-octanol/PBS
Plasmodium falciparum [6] = test: Antimalarial activity against MMV006833 resistant Plasmodium falciparum 3D7 assessed as reduction in parasite growth incubated for 72 hrs by LDH assay; type: functional, organism-based; details: 3D7, 72 h
Plasmodium falciparum [7] = test: Antimalarial activity against MMV006833 resistant Plasmodium falciparum 3D7 harboring START1 N309K mutant assessed as reduction in parasite growth incubated for 72 hrs by LDH assay; type: functional, organism-based; details: 3D7, 72 h
Plasmodium falciparum [8] = test: Antimalarial activity against MMV006833 resistant Plasmodium falciparum 3D7 harboring START1 N330K mutant assessed as reduction in parasite growth incubated for 72 hrs by LDH assay; type: functional, organism-based; details: 3D7, 72 h
Plasmodium falciparum [9] = test: Binding affinity to recombinant Plasmodium falciparum START1 assessed as change in enthalpy at 10 uM by isothermal titration calorimetry
Plasmodium falciparum [10] = test: Binding affinity to recombinant Plasmodium falciparum START1 assessed as change in entropy at 10 uM by isothermal titration calorimetry
[11] = Binding affinity to recombinant Plasmodium falciparum START1 assessed as dissociation constant by isothermal titration calorimetry
Plasmodium falciparum [12] = test: Antimalarial activity against Plasmodium falciparum Dd2 assessed as reduction in parasite growth incubated for 72 hrs by [3H]-hypoxanthine incorporation assay; type: functional, organism-based
Plasmodium falciparum [13] = test: Antimalarial activity against MMV-048 resistant Plasmodium falciparum Dd2 harboring PI4K S743T mutant assessed as reduction in parasite growth incubated for 72 hrs by [3H]-hypoxanthine incorporation assay; type: functional, organism-based
Plasmodium falciparum [14] = test: Antimalarial activity against ELQ-300 resistant Plasmodium falciparum Dd2 harboring Cyt b I22L mutant assessed as reduction in parasite growth incubated for 72 hrs by [3H]-hypoxanthine incorporation assay; type: functional, organism-based
Plasmodium falciparum [15] = test: Antimalarial activity against DDD-107498 resistant Plasmodium falciparum Dd2 harboring eEF2 Y86N mutant assessed as reduction in parasite growth incubated for 72 hrs by [3H]-hypoxanthine incorporation assay; type: functional, organism-based
Plasmodium falciparum [16] = test: Antimalarial activity against KAF-156 resistant Plasmodium falciparum Dd2 harboring CARL I1139K mutant assessed as reduction in parasite growth incubated for 72 hrs by [3H]-hypoxanthine incorporation assay; type: functional, organism-based
Plasmodium falciparum [17] = test: Antimalarial activity against DSM-265 resistant Plasmodium falciparum Dd2 harboring DHODH C276F mutant assessed as reduction in parasite growth incubated for 72 hrs by [3H]-hypoxanthine incorporation assay; type: functional, organism-based
Plasmodium falciparum [18] = test: Antimalarial activity against chloroquine and mefloquine resistant Plasmodium falciparum K1 assessed as reduction in parasite growth incubated for 72 hrs by [3H]-hypoxanthine incorporation assay; type: functional, organism-based
Plasmodium falciparum [19] = test: Antimalarial activity against chloroquine and mefloquine resistant Plasmodium falciparum NF54 assessed as reduction in parasite growth incubated for 72 hrs by [3H]-hypoxanthine incorporation assay; type: functional, organism-based
Plasmodium falciparum [20] = test: Antimalarial activity against atovaquone resistant Plasmodium falciparum TM90-C2B assessed as reduction in parasite growth incubated for 72 hrs by [3H]-hypoxanthine incorporation assay; type: functional, organism-based
Plasmodium falciparum [21] = test: Antimalarial activity against chloroquine and mefloquine resistant Plasmodium falciparum 7G8 assessed as reduction in parasite growth incubated for 72 hrs by [3H]-hypoxanthine incorporation assay; type: functional, organism-based
Plasmodium falciparum [22] = test: Antimalarial activity against chloroquine and mefloquine resistant Plasmodium falciparum RF12 assessed as reduction in parasite growth incubated for 72 hrs by [3H]-hypoxanthine incorporation assay; type: functional, organism-based
Plasmodium berghei = test: Antimalarial activity against Plasmodium berghei ANKA infected in mouse assessed as reduction of parasitaemia at 30 mg/kg,po bid administrated for 72 hrs and measured after 24 hrs post last dose by Giemsa staining based microscopic analysis relative to control; type: functional; parameters: scale not given: the % may be the effect or the level left; details: time 96 hrs

SMILES	EC50 (Plasmodium falciparum [1])	EC50 (HepG2)	other results
O=C(CNc1ccc(Cl)c(S(=O)(=O)N2CCC(Cc3ccccc3)CC2)c1)Nc1ccc(F)c(Cl)c1	270 nM	14000 nM	
C[C@H](Nc1ccc(Cl)c(S(=O)(=O)N2CCOCC2)c1)C(=O)Nc1cncc(Cl)c1	54 nM	> 40000 nM	hepatocyte CLint at 1 µM [2]: 50 µL/min/1e6 cells; solubility kinetic at 2 h [3]: 77 µM (≈ 35.4 µg/mL); microsomal CLint at 1 µM [4]: > 462 µL/min/mg; logD at 2 h, 7.5 µM [5]: 3.1; EC50 (Plasmodium falciparum [6]): 16 nM; EC50 (Plasmodium falciparum [7]): 7800 nM; EC50 (Plasmodium falciparum [8]): 2600 nM; deltaH (Plasmodium falciparum [9]): -14.4 kcal/mol; -TdeltaS (Plasmodium falciparum [10]): 4.8 kcal/mol; Kd [11]: 119 nM
CN(C)C1CCN(S(=O)(=O)c2cc(NCC(=O)Nc3ccc(F)c(Cl)c3)ccc2Cl)CC1	> 10000 nM	> 40000 nM	
O=C(CNc1ccc(Cl)c(S(=O)(=O)N2CCOCC2)c1)Nc1ccnc(Cl)c1	1100 nM	> 40000 nM	
Cc1cc(Cl)c(S(=O)(=O)N2CCOCC2)cc1NCC(=O)Nc1ccc(F)c(Cl)c1	130 nM	> 40000 nM	
CS(=O)(=O)c1ccc(-c2cnc(N)c(-c3ccc(C(F)(F)F)nc3)c2)cc1 [MMV-048]			EC50 (Plasmodium falciparum [12]): 16 nM; EC50 (Plasmodium falciparum [13]): 120 nM
Cc1ccc(NCC(=O)Nc2ccccc2)cc1S(=O)(=O)N1CCOCC1	2100 nM	> 40000 nM	
Cc1ccc(NCC(=O)Nc2ccc(F)c(Cl)c2)cc1S(=O)(=O)N1CCOCC1	270 nM		
N#Cc1cccc(NC(=O)CNc2ccc(Cl)c(S(=O)(=O)N3CCOCC3)c2)c1	1500 nM	> 40000 nM	
Cc1cc(Cl)c(S(=O)(=O)N2CCCC2)cc1OCC(=O)NC1CCCCC1			Kd [11]: 42 nM
O=C(CNc1ccc(Cl)c(S(=O)(=O)N2CCOCC2)c1)Nc1cccc(OC(F)(F)F)c1	5000 nM	19800 nM	
C[C@H](Nc1ccc(Cl)c(S(=O)(=O)N2CCOCC2)c1)C(=O)Nc1ccc(F)c(Cl)c1	22 nM	> 40000 nM	hepatocyte CLint at 1 µM [2]: > 92 µL/min/1e6 cells; solubility kinetic at 2 h [3]: 14 µM (≈ 6.67 µg/mL); microsomal CLint at 1 µM [4]: > 462 µL/min/mg; logD at 2 h, 7.5 µM [5]: 3.9; EC50 (Plasmodium falciparum [6]): 3 nM; EC50 (Plasmodium falciparum [7]): 2100 nM; EC50 (Plasmodium falciparum [8]): 1700 nM; deltaH (Plasmodium falciparum [9]): -17.7 kcal/mol; -TdeltaS (Plasmodium falciparum [10]): 7.8 kcal/mol; Kd [11]: 66 nM
CN1CCC(NS(=O)(=O)c2cc(NCC(=O)Nc3ccc(F)c(Cl)c3)ccc2Cl)CC1	> 10000 nM	> 40000 nM	
COc1ccc(NCC(=O)Nc2ccc(F)c(Cl)c2)cc1S(=O)(=O)N1CCOCC1	430 nM	> 40000 nM	
COc1cc2[nH]c(C)c(-c3ccc(Oc4ccc(OC(F)(F)F)cc4)cc3)c(=O)c2cc1Cl			EC50 (Plasmodium falciparum [12]): 21 nM; EC50 (Plasmodium falciparum [14]): 180 nM
Cc1cc(Cl)c(S(=O)(=O)N2CCOCC2)cc1NCC(=O)NC1CCCCC1	1000 nM	> 40000 nM	
O=C(CNc1ccc(Cl)c(S(=O)(=O)N2CCOCC2)c1)Nc1cncc(Cl)c1	410 nM	> 40000 nM	
O=C(Nc1ccc(F)c(Cl)c1)C(Cc1ccccc1)Nc1ccc(Cl)c(S(=O)(=O)N2CCOCC2)c1 (racemic)	1400 nM	15500 nM	
O=C(Nc1ccc(F)c(Cl)c1)[C@@H]1CCCCN1c1ccc(Cl)c(S(=O)(=O)N2CCOCC2)c1	420 nM	21000 nM	
CN1CCN(S(=O)(=O)c2cc(NCC(=O)Nc3ccc(F)c(Cl)c3)ccc2Cl)CC1	> 10000 nM	> 40000 nM	
O=C(CNc1ccc(Cl)c(S(=O)(=O)N2CCOCC2)c1)Nc1cc(Cl)ccn1	2800 nM	> 40000 nM	
C[C@@H](Nc1ccc(Cl)c(S(=O)(=O)N2CCOCC2)c1)C(=O)Nc1cncc(Cl)c1	1100 nM	> 40000 nM	
Cc1cc(Cl)c(S(=O)(=O)N2CCOCC2)cc1OCC(=O)NC1CCCCC1	1600 nM	> 40000 nM	

SMILES	EC50 (Plasmodium falciparum [1])	EC50 (HepG2)	other results
C[C@@H](Nc1ccc(Cl)c(S(=O)(=O)N2CCOCC2)c1)C(=O)Nc1ccc(F)c(Cl)c1	320 nM	> 40000 nM	EC50 (Plasmodium falciparum [6]): 99 nM; EC50 (Plasmodium falciparum [7]): 4300 nM; EC50 (Plasmodium falciparum [8]): 4400 nM; deltaH (Plasmodium falciparum [9]): -16.1 kcal/mol; -TdeltaS (Plasmodium falciparum [10]): 6.7 kcal/mol; Kd [11]: 138 nM
N#Cc1ccc(NCC(=O)Nc2ccc(F)c(Cl)c2)cc1S(=O)(=O)N1CCOCC1	750 nM	> 40000 nM	
CCC(Nc1ccc(Cl)c(S(=O)(=O)N2CCOCC2)c1)C(=O)Nc1ccc(F)c(Cl)c1 (racemic)	11 nM	24500 nM	
O=C(CNc1ccc(F)c(S(=O)(=O)N2CCOCC2)c1)Nc1ccc(F)c(Cl)c1	400 nM		
Cc1ccc(NCC(=O)Nc2cccc(Cl)c2)cc1S(=O)(=O)N1CCOCC1	360 nM	> 40000 nM	
Cc1ccc(NCC(=O)Nc2cccc(C(F)(F)F)c2)cc1S(=O)(=O)N1CCOCC1	3800 nM	> 40000 nM	
O=C(COc1ccc(Cl)c(S(=O)(=O)N2CCOCC2)c1)Nc1ccc(F)c(Cl)c1	810 nM	> 40000 nM	
CC(C)[C@H](Nc1ccc(Cl)c(S(=O)(=O)N2CCOCC2)c1)C(=O)Nc1ccc(F)c(Cl)c1	33 nM	30300 nM	EC50 (Plasmodium falciparum [6]): 5 nM; EC50 (Plasmodium falciparum [7]): 2400 nM; EC50 (Plasmodium falciparum [8]): 2100 nM
O=C(Nc1ccc(F)c(Cl)c1)C(Nc1ccc(Cl)c(S(=O)(=O)N2CCOCC2)c1)c1ccccc1 (racemic)	6300 nM	19300 nM	
O=C(NCCN1CCCC1)c1cc(-c2ccc(CN3CCOCC3)cc2)nc2ccc(F)cc12 [CABAMIQUINE]			EC50 (Plasmodium falciparum [15]): 850 nM
O=C(COc1ccc(Cl)c(S(=O)(=O)N2CCOCC2)c1)NC1CCCCC1	4300 nM	> 40000 nM	
CC(=O)N1CCN(S(=O)(=O)c2cc(NCC(=O)Nc3ccc(F)c(Cl)c3)ccc2Cl)CC1	9100 nM	> 40000 nM	
CC1(C)c2nc(-c3ccc(F)cc3)c(Nc3ccc(F)cc3)n2CCN1C(=O)CN [GANAPLACIDE]			EC50 (Plasmodium falciparum [12]): 8 nM; EC50 (Plasmodium falciparum [16]): 1530 nM
CCC(C)[C@H](Nc1ccc(Cl)c(S(=O)(=O)N2CCOCC2)c1)C(=O)Nc1ccc(F)c(Cl)c1 (some centres undefined)	27 nM	10900 nM	EC50 (Plasmodium falciparum [6]): 15 nM; EC50 (Plasmodium falciparum [7]): 2100 nM; EC50 (Plasmodium falciparum [8]): 1600 nM
CC1CCN(S(=O)(=O)c2cc(NCC(=O)Nc3ccc(F)c(Cl)c3)ccc2Cl)CC1	260 nM	26800 nM	
CCC[C@H](Nc1ccc(Cl)c(S(=O)(=O)N2CCOCC2)c1)C(=O)Nc1ccc(F)c(Cl)c1	140 nM	16300 nM	
Cc1cc(Cl)c(S(=O)(=O)N2CCOCC2)cc1OCC(=O)Nc1ccc(F)c(Cl)c1	300 nM	> 40000 nM	
CC(C)CC(Nc1ccc(Cl)c(S(=O)(=O)N2CCOCC2)c1)C(=O)Nc1ccc(F)c(Cl)c1 (racemic)	850 nM	9500 nM	
O=C(CNc1ccc(Cl)c(S(=O)(=O)N2CCOCC2)c1)Nc1ccc(F)c(Cl)c1	80 nM	> 40000 nM	hepatocyte CLint at 1 µM [2]: > 92 µL/min/1e6 cells; solubility kinetic at 2 h [3]: 19 µM (≈ 8.78 µg/mL); microsomal CLint at 1 µM [4]: > 462 µL/min/mg; logD at 2 h, 7.5 µM [5]: 2.2; EC50 (Plasmodium falciparum [12]): 54 nM; EC50 (Plasmodium falciparum [16]): 26 nM; EC50 (Plasmodium falciparum [17]): 20 nM; EC50 (Plasmodium falciparum [15]): 28 nM; EC50 (Plasmodium falciparum [13]): 28 nM; EC50 (Plasmodium falciparum [14]): 24 nM; EC50 (Plasmodium falciparum [18]): 48 nM; EC50 (Plasmodium falciparum [19]): 42 nM; EC50 (Plasmodium falciparum [20]): 31 nM; EC50 (Plasmodium falciparum [21]): 26 nM; EC50 (Plasmodium falciparum [22]): 32 nM
O=C(CNc1ccc(Cl)c(S(=O)(=O)N2CCOCC2)c1)Nc1cccc(Cl)n1	8900 nM	> 40000 nM	
C[C@@H]1CC[C@H]2[C@@H](C)C(=O)O[C@@H]3O[C@@]4(C)CC[C@@H]1[C@]32OO4 [ARTEMISININ]			Activity (Plasmodium berghei): >98%
COC1CCN(S(=O)(=O)c2cc(NCC(=O)Nc3ccc(F)c(Cl)c3)ccc2Cl)CC1	1500 nM	> 40000 nM	
O=C(CNc1ccc(Cl)c(S(=O)(=O)N2CCOCC2)c1)Nc1cccc(Cl)c1	280 nM	> 40000 nM	
